Laboratory results published in patent US11642332B2, “(2R,4R)-5-(5′-chloro-2′-fluorobiphenyl-4-yl)-2-hydroxy-4-[(5-methyloxazole-2-carbonyl)amino]pentanoic acid” (THERAVANCE BIOPHARMA R&D IP, LLC, priority 2015, dated 2023).

Tests used:
[1] = Renal excretion of Compound 1 in dog; format: in vivo, male beagle dogs; details: for Urinary Excretion (approximate % of administered dose excreted in urine) Mean: 0-24 hrs
Protocol: An important factor for insuring appropriate long term drug dosing and correct steady-state drug concentrations in patients is drug clearance. In general, decreased drug clearance results in higher drug concentrations and greater drug effects. In order to understand renal clearance of Compound 1, the percent of administered dose recovered in urine following a single IV dose was assessed in three animal species. Three separate studies in male Sprague Dawley rats, male beagle dogs and male cynomolgus monkeys, respectively, were conducted and the procedure and experimental results are described below.
Male beagle dogs (N=6, two groups of 3), having body weights of 9.04-10.2 kg and 10.8-11.5 kg, received an IV dose of Compound 1 at 0.1 mg/kg (Group I) and 1.255 mg/kg (Group II) as part of a dosing cassette. Compound 1 was dissolved in PEG-200:ethanol:water (40:10:50) and filtered through a […] polyvinyl difluoride (PVDF) syringe filter prior to administration. The dogs had access to food ad libitum before and after administration of Compound 1. Urine samples were collected on cold packs into pre-weighed containers that were prefilled with 0.5 mL glacial acetic acid. The samples were weighed again and additional glacial acetic acid was added if needed to a final concentration of 2%. The samples were frozen and stored (−80° C.) prior to bioanalysis.
Dog urine concentrations of Compound 1 were determined by LC/MS/MS. Urine study samples (diluted in plasma K2EDTA(1:9)) were vortexed and 25 μL was placed in a 96-well plate. The samples were extracted with 100 μL in acetonitrile with internal standard Glyburide. The extract was centrifuged for 5 minutes at 3100 RPM and 75 μL of supernatant was transferred and mixed with 150 μL water. Samples (12 μL) were injected on a Waters Acquity UPLC BEH C18 (50×2.1 mm, 1.7 μm) column with a flow rate of 0.9 mL/min. Mobile phase A consisted of 95:5:0.1 (v:v:v) water:acetonitrile:formic acid and mobile phase B consisted of 50:50:0.1 (v:v:v) methanol:acetonitrile:formic acid. The gradient elution started with 35% to 90% B from 0.2 to 1.6 min, held at 95% from 1.7 to 2.2 min., followed by a step of 95% to 35% B from 2.20 to 2.30 min. Compound 1 assay range was 0.000100 to 1.00 μg/mL.
The mean amount of urine excreted over a collection period of 24 hrs and the approximate % of administered dose excreted in urine is reported in the table below.

[2] = IV/PO pharmacokinetic study in rats; format: in vivo, male Sprague-Dawley rats; design: AUC(0-t): concentration or dose not given beside the values; details: rat; for AUC(0-t): read-out: AUClast Mean
Protocol: Each rat or dog PK study began with formulation of the test compound. Appropriate masses of each test compound were added into a volume of vehicle (e.g. 5% sodium bicarbonate, 5% dextrose in H2O) such that the final concentration of each compound was appropriate to be dosed at 2 mL/kg. Although a homogenous suspension were acceptable for oral dosing, intravenous dosing solutions were sterile-filtered (0.2 μm) prior to dosing to ensure no particulates were administered.
In the rat study, pre-cannulated male Sprague-Dawley rats (3 per route) between 8 and 10 weeks of age were obtained from Harlan Laboratories (Indianapolis, Ind.). Rats received either a single oral gavage or a single intravenous (via lateral tail vein) dose of the dosing solution. The final dose was typically 0.5-3 mg/kg. Serial blood samples were harvested via the cannula implanted in the jugular vein at 3 minutes, 15 minutes, 30 minutes, 1 hour, 2 hours, 4 hours, 6 hours, and 24 hours post-dose. Sampling was performed either manually or using automated blood samplers. Samples were collected into microtainer tubes containing EDTA as the anticoagulant and were processed to plasma by refrigerated centrifugation.
Plasma samples were extracted with 3 volumes of MeCN containing a suitable internal standard. Extracts were reconstituted into 3 volumes of water containing 1% formic acid, and analyzed via HPLC-coupled MS/MS. Plasma concentration-time data were analyzed using the Phoenix software (Pharsight Corp., St. Louis, Mo.) to calculate pharmacokinetic parameters.
Plasma clearance was determined from the intravenous arm of the study, and represents the rate at which plasma is cleared of drug. It is equal to the dose divided by the area under the plasma concentration-time curve. In addition to plasma clearance, it is also essential for an orally administered drug to reach efficacious systemic levels following oral delivery. Oral bioavailability is a measurement of plasma exposures following oral administration relative to exposures following intravenous administration.

[3] = IV/PO pharmacokinetic study of Compound 1 in monkeys; format: in vivo; details: male, cynomolgus monkey, plasma, 1 mg/kg; for AUC(0-t): read-out: AUClast Mean
Protocol: A monkey PK study was performed with an appropriate mass of compound 1 in volume of vehicle (e.g., 5% sodium bicarbonate, 5% dextrose in H2O, pH 7.4, for oral and PEG200:EtOH:Water (40:10:50), pH 7.0, filtered through a […] PDVF syringe for IV) such that the final concentration was dosed at 0.5 mL/kg (IV) or 2.0 mL/kg (PO).
Male cynomologus monkeys (3 per route) housed at Xenometrics (Stilwell, Kans.) received an IV or PO dose of compound 1 at 1 mg/kg. Animals administered IV doses had access to food ad libitum and those administered PO doses were fasted overnight and received food approximately 4 hours after dose administration. Blood samples were collected from each animal at each time point (pre-dose, 0.083 hour, 0.25 hour, 0.5 hour, 1 hour, 2 hours, 4 hours, 6 hours, 8 hours, 12 hours, and 24 hours) via the cephalic, femoral, or sphenous vein through 48 hours. All samples were collected into K2EDTA tubes and placed on ice. Samples were processed to plasma by centrifugation (3200 rpm, 10 minutes, 5° C.), and acidified with a final concentration of 2% acetic acid. Aliquots of plasma were transferred to a 96-well plate tubes and stored frozen (−70° C.) prior to bioanalysis. Plasma concentrations of compound 1 were determined by LC/MS/MS. Plasma study samples were vortexed and placed in a 96-well plate. The samples were extracted with 200 μL of 0.2% formic acid in acetonitrile with an internal standard. The extract was centrifuged for 10 minutes at 3700 RPM and supernatant was mixed with 0.2% formic acid in water. Samples (15 μL) were injected on a Thermo (C18 50×2.1 mm) column with a flow rate of 0.3 mL/min. […] Pharmacokinetic parameters of compound 1 were determined by non-compartmental analysis (Model 201 and Model 200 for IV and PO administration, respectively) using Phoenix WinNonlin Version 6.3 (Certara, Sunnyvale, Calif.) and using individual plasma concentration time profiles from 3 animals.
Plasma clearance was determined from the intravenous arm of the study, and represents the rate at which plasma is cleared of drug. […]

- Amount of Compound 1 Excreted in Urine over Collection Period (0-24 hrs) Mean ([1]; IV 0.1 mg/kg): 15.8 µg
- Urinary Excretion (approximate % of administered dose excreted in urine) Mean ([1]; IV 0.1 mg/kg): 0.92%
- Amount of Compound 1 Excreted in Urine over Collection Period (0-24 hrs) Mean ([1]; IV 1.26 mg/kg): 103 µg
- Urinary Excretion (approximate % of administered dose excreted in urine) Mean ([1]; IV 1.26 mg/kg): 1.67%
- AUC(0-t) ([2]; male, Sprague-Dawley, plasma, IV): 610 ng·h/mL
- bioavailability ([2]; male, Sprague-Dawley, plasma, PO vs IV AUClast): 67%
- AUC(0-t) ([2]; male, Sprague-Dawley, plasma, PO): 400 ng·h/mL
- CLlast Mean ([2]; IV, dose divided by AUClast): 0.83 L/h/kg
- AUC(0-t) ([3]; IV): 2780 ng·h/mL
- AUC(0-t) ([3]; PO): 1660 ng·h/mL
- bioavailability ([3]; oral, PO vs IV): ~60%
SMILES: Cc1cnc(C(=O)N[C@H](Cc2ccc(-c3cc(Cl)ccc3F)cc2)C[C@@H](O)C(=O)O)o1 [Compound 1, (2R,4R)-5-(5′-Chloro-2′-fluorobiphenyl-4-yl)-2-hydroxy-4-[(5-methyloxazole-2-carbonyl)amino]pentanoic Acid]
